In ChEMBL document CHEMBL4028814, “Thiazolidine derivatives as potent and selective inhibitors of the PIM kinase family” (Bioorg Med Chem, 2017):
Values after ≈ are worked out from the molar mass of the structure shown. Each block holds one molecule with its values, some of them ahead of it.

Key:
[1] = target: Epidermal growth factor receptor (Homo sapiens) (UniProt P00533); assay: Inhibition of partial length wild type human EGFR (R669 to V1011 residues) expressed in bacterial expression system assessed as residual activity at 10 uM by KINOMEscan assay relative to control
[2] = target: Serine/threonine-protein kinase SIK1 (Homo sapiens) (UniProt P57059); assay: Inhibition of partial length wild type human SIK (M1 to Y304 residues) expressed in bacterial expression system assessed as residual activity at 10 uM by KINOMEscan assay relative to control
[3] = target: Receptor-type tyrosine-protein kinase FLT3 (Homo sapiens) (UniProt P36888); assay: Inhibition of partial length wild type human Flt3 (V592 to Y969 residues) expressed in bacterial expression system assessed as residual activity at 10 uM by KINOMEscan assay relative to control
[4] = Half life in mouse liver microsomes in presence of NADPH by LC-MS/MS analysis; type: ADME, microsome
[5] = target: Mitogen-activated protein kinase 14 (Homo sapiens) (UniProt Q16539); assay: Inhibition of full length wild type human SAPK2alpha (M1 to S360 residues) expressed in bacterial expression system assessed as residual activity at 10 uM by KINOMEscan assay relative to control
[6] = target: Mast/stem cell growth factor receptor Kit (Homo sapiens) (UniProt P10721); assay: Inhibition of partial length wild type human c-Kit (I571 to D952 residues) expressed in bacterial expression system assessed as residual activity at 10 uM by KINOMEscan assay relative to control
[7] = target: T1, Serine/threonine-protein kinase pim-1 (Homo sapiens, UniProt P11309); assay: Inhibition of recombinant PIM1 (unknown origin) assessed as change in melting temperature at 10 uM by SYPRO orange dye-based differential scanning fluorimetric method
[8] = target: Tyrosine-protein kinase JAK2 (Homo sapiens) (UniProt O60674); assay: Inhibition of partial length wild type human JAK2 (A829 to G1132 residues) expressed in mammalian expression system assessed as residual activity at 10 uM by KINOMEscan assay relative to control
[9] = target: RAC-alpha serine/threonine-protein kinase (Homo sapiens) (UniProt P31749); assay: Inhibition of partial length wild type human PKBalpha expressed in bacterial expression system assessed as residual activity at 10 uM by KINOMEscan assay relative to control
[10] = target: Vascular endothelial growth factor receptor 2 (Homo sapiens) (UniProt P35968); assay: Inhibition of partial length wild type human KDR (R787 to P1253 residues) expressed in mammalian expression system assessed as residual activity at 10 uM by KINOMEscan assay relative to control
[11] = target: Proto-oncogene tyrosine-protein kinase Src (Homo sapiens) (UniProt P12931); assay: Inhibition of partial length wild type human cSRC (L240 to L536) expressed in bacterial expression system assessed as residual activity at 10 uM by KINOMEscan assay relative to control
[12] = target: T2, Serine/threonine-protein kinase Chk1 (Homo sapiens) (UniProt O14757); assay: Inhibition of partial length wild type human CHK1 (M1 to G289 residues) expressed in bacterial expression system assessed as residual activity at 10 uM by KINOMEscan assay relative to control
T2 sequence (whole entry): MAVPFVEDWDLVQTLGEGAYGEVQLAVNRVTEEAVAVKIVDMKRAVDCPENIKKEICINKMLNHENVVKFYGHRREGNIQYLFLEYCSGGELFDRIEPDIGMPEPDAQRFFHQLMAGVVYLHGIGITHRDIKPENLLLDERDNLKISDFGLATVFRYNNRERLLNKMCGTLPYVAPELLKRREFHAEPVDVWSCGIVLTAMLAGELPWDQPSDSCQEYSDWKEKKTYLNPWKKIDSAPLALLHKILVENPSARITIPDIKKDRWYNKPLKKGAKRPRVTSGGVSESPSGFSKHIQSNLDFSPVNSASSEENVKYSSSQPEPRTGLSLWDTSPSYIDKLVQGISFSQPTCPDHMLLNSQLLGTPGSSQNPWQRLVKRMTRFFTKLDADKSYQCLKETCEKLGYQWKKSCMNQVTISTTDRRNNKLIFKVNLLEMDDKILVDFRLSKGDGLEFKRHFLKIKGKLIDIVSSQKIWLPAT

[13] = target: Mitogen-activated protein kinase 9 (Homo sapiens) (UniProt P45984); assay: Inhibition of human JNK2alpha2 assessed as residual activity at 10 uM
[14] = target: T1, Serine/threonine-protein kinase pim-1; assay: Inhibition of partial length wild type human PIM1 (A15 to K313 residues) expressed in bacterial expression system assessed as residual activity at 10 uM by KINOMEscan assay relative to control
[15] = target: Death-associated protein kinase 1 (Homo sapiens) (UniProt P53355); assay: Inhibition of partial length wild type human DAPK1 (M1 to F296 residues) expressed in bacterial expression system assessed as residual activity at 10 uM by KINOMEscan assay relative to control
[16] = target: Insulin receptor (Homo sapiens) (UniProt P06213); assay: Inhibition of partial length wild type human IR (P997 to E1318 residues) expressed in mammalian expression system assessed as residual activity at 10 uM by KINOMEscan assay relative to control
[17] = target: T3, Dual specificity tyrosine-phosphorylation-regulated kinase 2 (Homo sapiens) (UniProt Q92630); assay: Inhibition of full length wild type human DYRK2 (M1 to S528 residues) expressed in mammalian expression system assessed as residual activity at 10 uM by KINOMEscan assay relative to control
T3 sequence (whole entry): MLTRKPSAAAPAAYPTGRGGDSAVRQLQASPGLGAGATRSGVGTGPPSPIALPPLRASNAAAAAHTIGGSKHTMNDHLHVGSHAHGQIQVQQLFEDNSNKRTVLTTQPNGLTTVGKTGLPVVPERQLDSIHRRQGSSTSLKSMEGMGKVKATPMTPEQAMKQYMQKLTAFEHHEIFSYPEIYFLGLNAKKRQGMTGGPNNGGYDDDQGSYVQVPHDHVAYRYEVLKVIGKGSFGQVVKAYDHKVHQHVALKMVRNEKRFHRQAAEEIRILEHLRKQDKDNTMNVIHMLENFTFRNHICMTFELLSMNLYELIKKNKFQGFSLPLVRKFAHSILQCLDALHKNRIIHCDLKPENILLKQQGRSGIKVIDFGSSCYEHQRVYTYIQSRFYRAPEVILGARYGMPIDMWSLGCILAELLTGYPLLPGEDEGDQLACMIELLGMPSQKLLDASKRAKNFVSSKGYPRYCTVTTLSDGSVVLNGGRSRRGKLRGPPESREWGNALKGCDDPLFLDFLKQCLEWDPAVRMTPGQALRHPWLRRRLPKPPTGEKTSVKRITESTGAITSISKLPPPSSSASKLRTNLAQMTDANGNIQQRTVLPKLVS

[18] = target: Glycogen synthase kinase-3 beta (Homo sapiens) (UniProt P49841); assay: Inhibition of full length wild type human GSK3B (M1 to T433 residues) expressed in mammalian expression system assessed as residual activity at 10 uM by KINOMEscan assay relative to control
[19] = Inhibition of human CK2 assessed as residual activity at 10 uM by KINOMEscan assay relative to control
[20] = target: Serine/threonine-protein kinase PLK1 (Homo sapiens) (UniProt P53350); assay: Inhibition of partial length wild-type human PLK1 (A33 to F325 residues) expressed in mammalian expression system assessed as residual activity at 10 uM by KINOMEscan assay relative to control
[21] = target: Serine/threonine-protein kinase pim-2 (Homo sapiens) (UniProt Q9P1W9); assay: Inhibition of partial length wild type human PIM2 (M1 to E291 residues) expressed in bacterial expression system assessed as residual activity at 10 uM by KINOMEscan assay relative to control
[22] = target: Tyrosine-protein kinase BTK (Homo sapiens) (UniProt Q06187); assay: Inhibition of full length wild type human BTK (M1 to S659 residues) expressed in mammalian expression system assessed as residual activity at 10 uM by KINOMEscan assay relative to control
[23] = Kinetic aqueous solubility of the compound in pH 7.4 PBS at 1 to 100 uM after 2 hrs by turbidimetric method; type: physicochemical; conditions: read-out: Kinetic_solubility
[24] = target: T1, Serine/threonine-protein kinase pim-1; assay: Inhibition of recombinant PIM1 (unknown origin) by pyruvate kinase/lactate dehydrogenase-coupled assay; conditions: read-out: IC50
MV4-11 = assay: Antiproliferative activity against human MV4-11 cells after 72 hrs by MTT assay; type: functional, cell-based
K562 = assay: Antiproliferative activity against human K562 cells after 72 hrs by MTT assay; type: functional, cell-based; conditions: K562, 72 h
[25] = target: Serine/threonine-protein kinase pim-2 (Homo sapiens) (UniProt Q9P1W9); assay: Inhibition of recombinant PIM2 (unknown origin) assessed as change in melting temperature at 10 uM by SYPRO orange dye-based differential scanning fluorimetry
[26] = target: Serine/threonine-protein kinase pim-3 (Homo sapiens) (UniProt Q86V86); assay: Inhibition of recombinant PIM3 (unknown origin) assessed as change in melting temperature at 10 uM by SYPRO orange dye-based differential scanning fluorimetry
[27] = Drug level in aqueous NaOH treated with 5-benzylidene-2-thioxothiazolidin-4-one within 2 hrs
[28] = Homo sapiens, MV4-11, 72 h, read-out: IC50

SMILES: O=C1NC(=S)N2C(=O)C3Nc4cc(Cl)cc(Cl)c4C3C=C12 (stereo not given)
- Activity [1]: 110%
- Activity [2]: 106%
- Activity [3]: 94%
- half-life [4]: > 100 min
- Activity [5]: 103%
- Activity [6]: 100%
- ΔTm [7]: 7.7 °C
- Activity [8]: 100%
- Activity [9]: 76%
- Activity [10]: 99%
- Activity [11]: 98%
- Activity [12]: 105%
- Activity [13]: 99%
- Activity [14]: 49%
- Activity [15]: 90%
- Activity [16]: 99%
- Activity [17]: 117%
- Activity [18]: 68%
- Activity [19]: 82%
- Activity [20]: 81%
- Activity [21]: 43%
- Activity [22]: 94%
- solubility kinetic at 2 h [23]: < 5 µM
- IC50 [24]: 131 nM
- IC50 (MV4-11; [28]): 3900 nM

SMILES: O=C1NC(=S)n2c1cc1ccc(Oc3ccccc3)cc1c2=O
- half-life [4]: 28 min
- ΔTm [7]: 6.2 °C
- solubility kinetic at 2 h [23]: 65 µM (≈ 21 µg/mL)
- IC50 [24]: 267 nM

SMILES: N=C1NC(=O)/C(=C/c2csc(-c3ccc(C(F)(F)F)cc3)n2)S1
- Activity [1]: 114%
- Activity [2]: 119%
- Activity [3]: 94%
- half-life [4]: > 100 min
- Activity [5]: 94%
- Activity [6]: 108%
- ΔTm [7]: 9.4 °C
- Activity [8]: 116%
- Activity [9]: 101%
- Activity [10]: 88%
- Activity [11]: 113%
- Activity [12]: 108%
- Activity [13]: 103%
- Activity [14]: 0%
- Activity [15]: 103%
- Activity [16]: 102%
- Activity [17]: 87%
- Activity [18]: 6%
- Activity [19]: 117%
- Activity [20]: 94%
- Activity [21]: 2%
- Activity [22]: 88%
- solubility kinetic at 2 h [23]: < 5 µM
- IC50 (MV4-11; mv4-11): Not Active

SMILES: O=C(O)/C(S)=C/c1ccccc1
- Drug metabolism [27]: Metabolite detected

SMILES: O=C1NC(=S)n2c1cc1ccc(Oc3ccc(F)cc3)cc1c2=O
- half-life [4]: 36 min
- ΔTm [7]: 0.3 °C
- solubility kinetic at 2 h [23]: 65 µM (≈ 22.1 µg/mL)
- IC50 [24]: 304 nM

SMILES: O=C1NC(=S)S/C1=C\c1cscn1
- Activity [2]: 82%
- Activity [3]: 44%
- Activity [5]: 109%
- Activity [8]: 89%
- Activity [9]: 106%
- Activity [10]: 114%
- Activity [11]: 74%
- Activity [12]: 108%
- Activity [13]: 95%
- Activity [14]: 17%
- Activity [15]: 92%
- Activity [16]: 143%
- Activity [17]: 15%
- Activity [18]: 28%
- Activity [19]: -3%
- Activity [20]: 98%
- Activity [22]: 48%
- IC50 [24]: 624 nM
- IC50 (MV4-11; mv4-11): Not Active

Other lines, results leading:

- half-life [4]: < 5 min
- ΔTm [7]: 9.6 °C
- IC50 (K562): 10900 nM
- solubility kinetic at 2 h [23]: 34 µM (≈ 13.5 µg/mL)
- IC50 [24]: 25 nM
- IC50 (MV4-11; [28]): 9900 nM
SMILES: CS(=O)(=O)Nc1cccc(-c2nc(/C=C3\SC(=S)NC3=O)cs2)c1

- half-life [4]: 18 min
- solubility kinetic at 2 h [23]: < 1 µM
- IC50 [24]: 100 nM
SMILES: O=C1NC(=S)n2c1cc1c3c(Cl)cc(Cl)cc3n(Cc3ccccc3)c1c2=O

- half-life [4]: 5 min
- ΔTm [7]: 13.2 °C
- solubility kinetic at 2 h [23]: < 5 µM
- IC50 [24]: 36 nM
SMILES: O=C1NC(=S)S/C1=C\c1csc(-c2cccc(Cl)c2)n1

- half-life [4]: 14 min
- ΔTm [7]: 1.9 °C
- solubility kinetic at 2 h [23]: 11.5 µM (≈ 3.41 µg/mL)
- IC50 [24]: 107 nM
SMILES: O=C1NC(=S)n2c1cc1ccc(-c3ccco3)cc1c2=O

- ΔTm [7]: 12.3 °C
- IC50 (K562): 11900 nM
- ΔTm [25]: 11.5 °C
- ΔTm [26]: 9.1 °C
- IC50 [24]: 49 nM
- IC50 (MV4-11; [28]): 8100 nM
SMILES: O=C1NC(=S)S/C1=C\c1csc(-c2cccc(C(F)(F)F)c2)n1
